Measured values reported in PubChem BioAssay (NCI).
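Cells were grown in 96-well plates and exposed to each compound for 48 hours at five concentrations; endpoints were interpolated linearly between bracketing concentrations, or set to the highest concentration if not reached. TGI: concentration producing complete growth inhibition.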

Columns and labels:
Assay in all cases: growth of human tumour cells (NCI), 48 h
TK-10 renal = test system: TK-10 renal
DU-145 prostate = test system: DU-145 prostate
NCI-H226 lung = test system: NCI-H226 lung
NCI-H522 lung = test system: NCI-H522 lung
CCRF-CEM leukemia = test system: CCRF-CEM leukemia
SR leukemia = test system: SR leukemia
T-47D breast = test system: T-47D breast
SNB-19 CNS = test system: SNB-19 CNS
HOP-62 NSCLC = test system: HOP-62 NSCLC
CAKI-1 renal = test system: CAKI-1 renal
SK-OV-3 ovarian = test system: SK-OV-3 ovarian
SK-MEL-5 melanoma = test system: SK-MEL-5 melanoma
UACC-257 melanoma = test system: UACC-257 melanoma
M14 melanoma = test system: M14 melanoma
COLO 205 colon = test system: COLO 205 colon
OVCAR-8 ovarian = test system: OVCAR-8 ovarian
BT-549 breast = test system: BT-549 breast
SK-MEL-2 melanoma = test system: SK-MEL-2 melanoma
SF-268 CNS = test system: SF-268 CNS
HL-60(TB) leukemia = test system: HL-60(TB) leukemia
MOLT-4 leukemia = test system: MOLT-4 leukemia
HCT-15 colon = test system: HCT-15 colon
HS 578T breast = test system: HS 578T breast
K-562 leukemia = test system: K-562 leukemia
EKVX NSCLC = test system: EKVX NSCLC
SF-295 CNS = test system: SF-295 CNS
IGROV1 ovarian = test system: IGROV1 ovarian
SF-539 CNS = test system: SF-539 CNS
SN12C renal = test system: SN12C renal
UO-31 renal = test system: UO-31 renal
MDA-MB-231 breast = test system: MDA-MB-231 breast
SNB-75 CNS = test system: SNB-75 CNS
U251 CNS = test system: U251 CNS
HT29 colon = test system: HT29 colon
OVCAR-3 ovarian = test system: OVCAR-3 ovarian
NCI-H23 lung = test system: NCI-H23 lung
RPMI-8226 leukemia = test system: RPMI-8226 leukemia
MALME-3M melanoma = test system: MALME-3M melanoma
UACC-62 melanoma = test system: UACC-62 melanoma
SK-MEL-28 melanoma = test system: SK-MEL-28 melanoma
HOP-92 NSCLC = test system: HOP-92 NSCLC
A549 NSCLC = test system: A549 NSCLC
MDA-MB-435 = test system: MDA-MB-435
KM12 colon = test system: KM12 colon
MDA-N = test system: MDA-N
OVCAR-5 ovarian = test system: OVCAR-5 ovarian
HCT-116 colon = test system: HCT-116 colon
RXF 393 renal = test system: RXF 393 renal
PC-3 prostate = test system: PC-3 prostate
SW-620 colon = test system: SW-620 colon
MCF7 breast = test system: MCF7 breast
NCI/ADR-RES ovarian = test system: NCI/ADR-RES ovarian
OVCAR-4 ovarian = test system: OVCAR-4 ovarian
786-0 renal = test system: 786-0 renal
LOX IMVI melanoma = test system: LOX IMVI melanoma
NCI-H460 lung = test system: NCI-H460 lung

Question: What does the source list for `CCCCCCCCCCCCCCCCNc1ccc2c(c1)OCCOCCOCCOCCO2`?
Answer: TGI (TK-10 renal): 25.7 µM; TGI (DU-145 prostate): 15.3 µM; TGI (NCI-H226 lung): 7.07 µM; TGI (NCI-H522 lung): 8.68 µM; TGI (CCRF-CEM leukemia): 7.62 µM; TGI (SR leukemia): 8.14 µM; TGI (T-47D breast): 9.2 µM; TGI (SNB-19 CNS): 14.2 µM; TGI (HOP-62 NSCLC): 7.28 µM; TGI (CAKI-1 renal): 13.6 µM; TGI (SK-OV-3 ovarian): 9.49 µM; TGI (SK-MEL-5 melanoma): 5.22 µM; TGI (UACC-257 melanoma): 6.91 µM; TGI (M14 melanoma): 13.5 µM; TGI (COLO 205 colon): 3.18 µM; TGI (OVCAR-8 ovarian): 10.8 µM; TGI (BT-549 breast): 11.6 µM; TGI (SK-MEL-2 melanoma): 4.44 µM; TGI (SF-268 CNS): 11.9 µM; TGI (HL-60(TB) leukemia): 6.16 µM; TGI (MOLT-4 leukemia): 6.19 µM; TGI (HCT-15 colon): 13.5 µM; TGI (HS 578T breast): 9.1 µM; TGI (K-562 leukemia): 10.7 µM; TGI (EKVX NSCLC): 14.4 µM; TGI (SF-295 CNS): 7.94 µM; TGI (IGROV1 ovarian): 9.41 µM; TGI (SF-539 CNS): 9.43 µM; TGI (SN12C renal): 10.5 µM; TGI (UO-31 renal): 8.88 µM; TGI (MDA-MB-231 breast): 11.9 µM; TGI (SNB-75 CNS): 11.9 µM; TGI (U251 CNS): 10.4 µM; TGI (HT29 colon): 10.9 µM; TGI (OVCAR-3 ovarian): 8.75 µM; TGI (NCI-H23 lung): 11.5 µM; TGI (RPMI-8226 leukemia): 4.49 µM; TGI (MALME-3M melanoma): 13.6 µM; TGI (UACC-62 melanoma): 11.1 µM; TGI (SK-MEL-28 melanoma): 18.8 µM; TGI (HOP-92 NSCLC): 5.99 µM; TGI (A549 NSCLC): 14.5 µM; TGI (MDA-MB-435): 11.1 µM; TGI (KM12 colon): 4.84 µM; TGI (MDA-N): 12.8 µM; TGI (OVCAR-5 ovarian): 14.2 µM; TGI (HCT-116 colon): 11.3 µM; TGI (RXF 393 renal): 5.58 µM; TGI (PC-3 prostate): 6.43 µM; TGI (SW-620 colon): 13.3 µM; TGI (MCF7 breast): 13.2 µM; TGI (NCI/ADR-RES ovarian): 6.4 µM; TGI (OVCAR-4 ovarian): 17.6 µM; TGI (786-0 renal): 13.8 µM; TGI (LOX IMVI melanoma): 5.42 µM; TGI (NCI-H460 lung): 10.7 µM
